Numbered stars: 1 amine (or outer) side, 2 acyl side, 3 side chain; on linkers, the order of the positions; unused ones are H or OH. Bridge positions count the residues as written; N and C are the ends. Square brackets hold non-standard residues; d marks the D form. Peptide text beside a SMILES is read from it. I, II: the chains in the order shown. 2Nal = N[C@@H](Cc1ccc2ccccc2c1)C(=O)O; Diglycolyl = O=C(COCC(=O)[*:2])[*:1]; NMeR = CN[C@@H](CCCNC(=N)N)C(=O)O; β3hE = N[C@@H](CCC(=O)O)CC(=O)O; NMeK = CN[C@@H](CCCCN)C(=O)O; Pen = CC(C)(S)[C@H](N)C(=O)O; dNMeK = CN[C@H](CCCCN)C(=O)O
Experiments:
[1] = target: T1, rh integrin α4β7 (Homo sapiens, UniProt P13612+P26010); assay: α4β7-MAdCAM Competition ELISA; assay type: binding; details: Table 4-B; read-out: ELISA α4β7 IC50
T1 construct: purchased R&D Systems 5397-A30
Procedure, shortened: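 Competition read-out was A450 after anti-human IgG1-HRP and TMB detection of bound recombinant human MAdCAM-1 (10 nM final). Peptides were serially diluted 3-fold from a final 10 μM and equilibrated 1 h at room temperature on nickel-captured α4β7 (800 ng/well). The buffer was Tris pH 7.6 with 1 mM Mn2+ or Mg2+.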

[2] = target: T2, α4β1 (Homo sapiens, UniProt P05556+P13612, DEL729-798); assay: α4β1-VCAM Competition ELISA; assay type: binding; details: Table 4-B; read-out: ELISA_α4β1 IC50
T2 construct: purchased R&D Systems 5668-A4
Procedure, shortened: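 ELISA plates were coated with VCAM-1 Fc at 400 ng/well. Peptide dilutions (highest final 100 μM) and 60 nM α4β1 were incubated 2 h at 37 °C in pH 7.6 Tris buffer containing 1 mM Mn2+ or Mg2+. Integrin retained on the plate was detected by 9F10 antibody, then HRP secondary, with TMB absorbance at 450 nm.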

[3] = Simulated Intestinal Fluid (SIF) Stability Assay; assay type: in vitro ADME, porcine; details: pig, simulated intestinal fluid (SIF) with 1% porcine pancreatin, pH 6.5, Table 4-C, t1/2; > means assay stopped at that time; read-out: SIF (porcine) Min
Procedure, shortened: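 Intestinal stability: percent peptide remaining over time, by LC-MS/MS peak-area ratio to internal standard, fitted to first-order decay for half-life. Conditions: 22 μM peptide, 1% pancreatin in pH 6.5 blank FASSIF, 37 °C.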

T2 sequence (P13612 34-977 limits assumed, stated change not applied): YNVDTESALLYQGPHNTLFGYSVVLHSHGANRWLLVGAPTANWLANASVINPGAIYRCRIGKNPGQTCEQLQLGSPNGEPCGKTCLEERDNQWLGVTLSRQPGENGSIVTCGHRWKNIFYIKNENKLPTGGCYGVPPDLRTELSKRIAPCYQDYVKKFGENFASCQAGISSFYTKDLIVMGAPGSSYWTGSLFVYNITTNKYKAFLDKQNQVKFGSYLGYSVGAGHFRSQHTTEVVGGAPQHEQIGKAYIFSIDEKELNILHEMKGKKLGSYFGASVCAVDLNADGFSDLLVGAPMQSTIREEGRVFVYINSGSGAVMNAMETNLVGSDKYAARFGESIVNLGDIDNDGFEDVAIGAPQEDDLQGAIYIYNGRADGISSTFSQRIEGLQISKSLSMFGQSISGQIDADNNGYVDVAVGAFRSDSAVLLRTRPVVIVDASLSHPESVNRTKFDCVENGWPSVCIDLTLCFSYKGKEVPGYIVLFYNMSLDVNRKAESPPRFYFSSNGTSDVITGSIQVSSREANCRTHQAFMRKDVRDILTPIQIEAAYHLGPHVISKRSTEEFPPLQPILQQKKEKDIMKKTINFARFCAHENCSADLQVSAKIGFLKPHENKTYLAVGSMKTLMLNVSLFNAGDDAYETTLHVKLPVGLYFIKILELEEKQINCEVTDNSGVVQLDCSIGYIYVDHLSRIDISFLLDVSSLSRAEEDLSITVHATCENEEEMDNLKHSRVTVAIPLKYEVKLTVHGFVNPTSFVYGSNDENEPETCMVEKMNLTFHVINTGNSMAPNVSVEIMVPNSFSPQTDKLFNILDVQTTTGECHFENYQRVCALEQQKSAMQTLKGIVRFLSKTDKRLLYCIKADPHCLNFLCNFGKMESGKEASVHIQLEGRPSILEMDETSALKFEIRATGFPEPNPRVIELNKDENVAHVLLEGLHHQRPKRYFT
T2 sequence (P05556 21-728 limits assumed, stated change not applied): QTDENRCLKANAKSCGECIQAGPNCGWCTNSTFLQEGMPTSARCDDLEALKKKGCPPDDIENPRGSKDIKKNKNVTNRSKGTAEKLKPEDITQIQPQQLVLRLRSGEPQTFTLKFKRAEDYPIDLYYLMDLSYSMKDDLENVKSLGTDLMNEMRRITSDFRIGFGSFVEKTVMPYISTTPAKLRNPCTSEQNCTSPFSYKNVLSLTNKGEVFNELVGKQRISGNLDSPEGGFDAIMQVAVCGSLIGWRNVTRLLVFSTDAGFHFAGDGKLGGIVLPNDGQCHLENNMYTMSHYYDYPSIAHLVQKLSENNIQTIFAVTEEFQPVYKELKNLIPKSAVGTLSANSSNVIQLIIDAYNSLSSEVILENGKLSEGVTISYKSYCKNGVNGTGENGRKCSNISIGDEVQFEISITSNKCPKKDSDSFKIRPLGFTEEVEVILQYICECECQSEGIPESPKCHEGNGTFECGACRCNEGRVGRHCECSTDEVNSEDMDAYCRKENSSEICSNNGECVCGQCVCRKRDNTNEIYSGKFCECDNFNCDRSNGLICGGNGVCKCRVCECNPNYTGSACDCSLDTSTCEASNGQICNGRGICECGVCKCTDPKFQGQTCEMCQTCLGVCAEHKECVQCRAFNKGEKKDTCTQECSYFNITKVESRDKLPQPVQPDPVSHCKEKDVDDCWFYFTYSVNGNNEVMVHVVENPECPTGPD
T1 sequence (P13612 34-977 limits assumed): as the sequence (P13612 34-977 limits assumed, stated change not applied) above
T1 sequence (P26010 20-723 limits assumed): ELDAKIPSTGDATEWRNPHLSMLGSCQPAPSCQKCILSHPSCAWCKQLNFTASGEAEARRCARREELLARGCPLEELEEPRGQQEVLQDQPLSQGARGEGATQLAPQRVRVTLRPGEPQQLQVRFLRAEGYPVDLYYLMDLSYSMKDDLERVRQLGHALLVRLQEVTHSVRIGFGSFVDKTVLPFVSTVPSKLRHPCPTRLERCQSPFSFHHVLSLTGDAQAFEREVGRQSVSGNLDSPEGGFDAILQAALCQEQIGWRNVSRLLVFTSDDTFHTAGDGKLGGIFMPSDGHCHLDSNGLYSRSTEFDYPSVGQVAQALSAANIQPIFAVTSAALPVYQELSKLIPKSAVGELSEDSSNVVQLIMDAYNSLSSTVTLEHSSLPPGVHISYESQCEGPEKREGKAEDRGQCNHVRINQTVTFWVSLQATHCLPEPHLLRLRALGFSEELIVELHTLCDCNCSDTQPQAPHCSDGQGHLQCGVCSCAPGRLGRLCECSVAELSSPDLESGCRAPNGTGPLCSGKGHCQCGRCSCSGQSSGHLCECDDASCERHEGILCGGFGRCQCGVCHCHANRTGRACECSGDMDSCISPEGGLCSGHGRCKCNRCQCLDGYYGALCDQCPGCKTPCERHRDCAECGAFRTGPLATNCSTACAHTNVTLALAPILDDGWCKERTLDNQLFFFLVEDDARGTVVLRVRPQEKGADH

Row | Structure (SMILES) | IC50 [1] [µM] | IC50 [2] [µM] | half-life at 22 μM [3] [h]
1 | CC(=O)N[C@@H]1C(=O)N(C)[C@@H](CCCNC(=N)N)C(=O)N[C@@H](CO)C(=O)N[C@@H](CC(=O)O)C(=O)N[C@@H]([C@@H](C)O)C(=O)N[C@@H](CC(C)C)C(=O)N[C@H](C(=O)N[C@@H](Cc2ccc3ccccc3c2)C(=O)N[C@@H](CCC(=O)O)C(=O)N[C@H](CCCCN)C(N)=O)C(C)(C)SSC1(C)C [compound 210, Ac-Pen-N-Me-R-S-D-T-L-Pen-2-Nal-E-k-NH2] (Ac-[Pen][NMeR]SDTL[Pen][2Nal]E[dK]-NH2; disulfide 1-7) | 0.011 | 0.2 | > 5
2 | CC(=O)N[C@@H]1C(=O)N(C)[C@@H](CCCNC(=N)N)C(=O)N[C@@H](CO)C(=O)N[C@@H](CC(=O)O)C(=O)N[C@@H]([C@@H](C)O)C(=O)N[C@@H](CC(C)C)C(=O)N[C@H](C(=O)N[C@@H](Cc2c[nH]c3ccccc23)C(=O)N[C@H](CCC(=O)O)C(=O)N[C@H](CCCCNC(=O)COCC(=O)NCCCC[C@@H](NC(=O)[C@@H](CCC(=O)O)NC(=O)[C@H](Cc2c[nH]c3ccccc23)NC(=O)[C@H]2NC(=O)[C@H](CC(C)C)NC(=O)[C@H]([C@@H](C)O)NC(=O)[C@H](CC(=O)O)NC(=O)[C@H](CO)NC(=O)[C@H](CCCNC(=N)N)N(C)C(=O)[C@@H](NC(C)=O)C(C)(C)SSC2(C)C)C(N)=O)C(N)=O)C(C)(C)SSC1(C)C [compound 211, (Ac-Pen-N-Me-R-S-D-T-L-Pen-W-e-k-NH2)2-DIG] (I: Ac-[Pen][NMeR]SDTL[Pen]W[dE][dK]-NH2 / II: Ac-[Pen][NMeR]SDTL[Pen]W[dE][dK]-NH2; disulfide I:1-I:7, II:1-II:7 (inferred); linker I:10-II:10 via Diglycolyl (inferred)) | 0.003 | 0.302 | > 5
3 | CC(=O)N[C@@H]1C(=O)N(C)[C@@H](CCCNC(=N)N)C(=O)N[C@@H](CO)C(=O)N[C@@H](CC(=O)O)C(=O)N[C@@H]([C@@H](C)O)C(=O)N[C@@H](CC(C)C)C(=O)N[C@H](C(=O)N[C@@H](Cc2ccc3ccccc3c2)C(=O)N[C@@H](CCC(=O)O)C(=O)N[C@H](CCCCNC(=O)COCC(=O)NCCCC[C@@H](NC(=O)[C@H](CCC(=O)O)NC(=O)[C@H](Cc2ccc3ccccc3c2)NC(=O)[C@H]2NC(=O)[C@H](CC(C)C)NC(=O)[C@H]([C@@H](C)O)NC(=O)[C@H](CC(=O)O)NC(=O)[C@H](CO)NC(=O)[C@H](CCCNC(=N)N)N(C)C(=O)[C@@H](NC(C)=O)C(C)(C)SSC2(C)C)C(N)=O)C(N)=O)C(C)(C)SSC1(C)C [compound 212, (Ac-Pen-N-Me-R-S-D-T-L-Pen-2-Nal-E-k-NH2)2-DIG] (I: Ac-[Pen][NMeR]SDTL[Pen][2Nal]E[dK]-NH2 / II: Ac-[Pen][NMeR]SDTL[Pen][2Nal]E[dK]-NH2; disulfide I:1-I:7, II:1-II:7 (inferred); linker I:10-II:10 via Diglycolyl (inferred)) | 0.002 | 0.07 | 1.5
4 | CC(=O)N[C@@H]1C(=O)N(C)[C@@H](CCCNC(=N)N)C(=O)N[C@@H](CO)C(=O)N[C@@H](CC(=O)O)C(=O)N[C@@H]([C@@H](C)O)C(=O)N[C@@H](CC(C)C)C(=O)N[C@H](C(=O)N[C@@H](Cc2c[nH]c3ccccc23)C(=O)N[C@@H](CCC(=O)O)CC(=O)N[C@H](CCCCNC(=O)COCC(=O)NCCCC[C@@H](NC(=O)C[C@H](CCC(=O)O)NC(=O)[C@H](Cc2c[nH]c3ccccc23)NC(=O)[C@H]2NC(=O)[C@H](CC(C)C)NC(=O)[C@H]([C@@H](C)O)NC(=O)[C@H](CC(=O)O)NC(=O)[C@H](CO)NC(=O)[C@H](CCCNC(=N)N)N(C)C(=O)[C@@H](NC(C)=O)C(C)(C)SSC2(C)C)C(N)=O)C(N)=O)C(C)(C)SSC1(C)C [compound 213, [Ac-Pen-(N-Me-Arg)-Ser-Asp-Thr-Leu-Pen-Trp-(β-homoGlu)-(D-Lys)-NH2]2-DIG] (I: Ac-[Pen][NMeR]SDTL[Pen]W[β3hE][dK]-NH2 / II: Ac-[Pen][NMeR]SDTL[Pen]W[β3hE][dK]-NH2; disulfide I:1-I:7, II:1-II:7; linker I:10-II:10 via Diglycolyl) | 0.0047 | 0.539 | > 3
5 | CC(=O)N[C@@H]1C(=O)N(C)[C@@H](CCCNC(=N)N)C(=O)N[C@@H](CO)C(=O)N[C@@H](CC(=O)O)C(=O)N[C@@H]([C@@H](C)O)C(=O)N[C@@H](CC(C)C)C(=O)N[C@H](C(=O)N[C@@H](Cc2c[nH]c3ccccc23)C(=O)N[C@@H](CCC(=O)O)C(=O)N(C)[C@H](CCCCNC(=O)COCC(=O)NCCCC[C@H](C(N)=O)N(C)C(=O)[C@H](CCC(=O)O)NC(=O)[C@H](Cc2c[nH]c3ccccc23)NC(=O)[C@H]2NC(=O)[C@H](CC(C)C)NC(=O)[C@H]([C@@H](C)O)NC(=O)[C@H](CC(=O)O)NC(=O)[C@H](CO)NC(=O)[C@H](CCCNC(=N)N)N(C)C(=O)[C@@H](NC(C)=O)C(C)(C)SSC2(C)C)C(N)=O)C(C)(C)SSC1(C)C [compound 214, [Ac-Pen-(N-Me-Arg)-Ser-Asp-Thr-Leu-Pen-Trp-Glu-(N-Me-D-Lys)-NH2]2-DIG] (I: Ac-[Pen][NMeR]SDTL[Pen]WE[dNMeK]-NH2 / II: Ac-[Pen][NMeR]SDTL[Pen]WE[dNMeK]-NH2; disulfide I:1-I:7, II:1-II:7 (inferred); linker I:10-II:10 via Diglycolyl (inferred)) | 0.0041 | 0.436 | > 13.5
6 | CC(=O)N[C@@H]1C(=O)N(C)[C@@H](CCCNC(=N)N)C(=O)N[C@@H](CO)C(=O)N[C@@H](CC(=O)O)C(=O)N[C@@H]([C@@H](C)O)C(=O)N[C@@H](CC(C)C)C(=O)N[C@H](C(=O)N[C@@H](Cc2c[nH]c3ccccc23)C(=O)N[C@@H](CCC(=O)O)C(=O)N(C)[C@@H](CCCCNC(=O)COCC(=O)NCCCC[C@@H](C(N)=O)N(C)C(=O)[C@H](CCC(=O)O)NC(=O)[C@H](Cc2c[nH]c3ccccc23)NC(=O)[C@H]2NC(=O)[C@H](CC(C)C)NC(=O)[C@H]([C@@H](C)O)NC(=O)[C@H](CC(=O)O)NC(=O)[C@H](CO)NC(=O)[C@H](CCCNC(=N)N)N(C)C(=O)[C@@H](NC(C)=O)C(C)(C)SSC2(C)C)C(N)=O)C(C)(C)SSC1(C)C [compound 215, [Ac-Pen-(N-Me-Arg)-Ser-Asp-Thr-Leu-Pen-Trp-Glu-(N-Me-Lys)-NH2]2-DIG] (I: Ac-[Pen][NMeR]SDTL[Pen]WE[NMeK]-NH2 / II: Ac-[Pen][NMeR]SDTL[Pen]WE[NMeK]-NH2; disulfide I:1-I:7, II:1-II:7 (inferred); linker I:10-II:10 via Diglycolyl (inferred)) | 0.0022 | 0.27 | > 6
7 | CC(=O)N[C@@H]1C(=O)N(C)[C@@H](CCCNC(=N)N)C(=O)N[C@@H](CO)C(=O)N[C@@H](CC(=O)O)C(=O)N[C@@H]([C@@H](C)O)C(=O)N[C@@H](CC(C)C)C(=O)N[C@H](C(=O)N[C@@H](Cc2c[nH]c3ccccc23)C(=O)N[C@H](CCC(=O)O)C(=O)N[C@H](CCCCNC(=O)COCC(=O)NCCCC[C@@H](NC(=O)[C@@H](CCC(=O)O)NC(=O)[C@H](Cc2c[nH]c3ccccc23)NC(=O)[C@H]2NC(=O)[C@H](CC(C)C)NC(=O)[C@H]([C@@H](C)O)NC(=O)[C@H](CC(=O)O)NC(=O)[C@H](CO)NC(=O)[C@H](CCCNC(=N)N)N(C)C(=O)[C@@H](NC(C)=O)C(C)(C)SSC2(C)C)C(=O)O)C(=O)O)C(C)(C)SSC1(C)C [compound 216, (Ac-Pen-N-Me-R-S-D-T-L-Pen-W-e-k-OH)2-DIG] (I: Ac-[Pen][NMeR]SDTL[Pen]W[dE][dK]-OH / II: Ac-[Pen][NMeR]SDTL[Pen]W[dE][dK]-OH; disulfide I:1-I:7, II:1-II:7 (inferred); linker I:10-II:10 via Diglycolyl (inferred)) | 0.0028 | 0.247 | > 3
8 | CC(=O)N[C@@H]1C(=O)N(C)[C@@H](CCCNC(=N)N)C(=O)N[C@@H](CO)C(=O)N[C@@H](CC(=O)O)C(=O)N[C@@H]([C@@H](C)O)C(=O)N[C@@H](CC(C)C)C(=O)N[C@H](C(=O)N[C@@H](Cc2c[nH]c3ccccc23)C(=O)N[C@@H](CCC(=O)O)C(=O)N[C@H](CCCCNC(=O)COCC(=O)NCCCC[C@@H](NC(=O)[C@H](CCC(=O)O)NC(=O)[C@H](Cc2c[nH]c3ccccc23)NC(=O)[C@H]2NC(=O)[C@H](CC(C)C)NC(=O)[C@H]([C@@H](C)O)NC(=O)[C@H](CC(=O)O)NC(=O)[C@H](CO)NC(=O)[C@H](CCCNC(=N)N)N(C)C(=O)[C@@H](NC(C)=O)C(C)(C)SSC2(C)C)C(N)=O)C(N)=O)C(C)(C)SSC1(C)C [compound 217, (Ac-Pen-N-Me-R-S-D-T-L-Pen-W-E-k-NH2)2-DIG] (I: Ac-[Pen][NMeR]SDTL[Pen]WE[dK]-NH2 / II: Ac-[Pen][NMeR]SDTL[Pen]WE[dK]-NH2; disulfide I:1-I:7, II:1-II:7 (inferred); linker I:10-II:10 via Diglycolyl (inferred)) | 0.0023 | 0.315 | 2.02

Reference: patent publication US9809623B2, “α4β7 peptide monomer and dimer antagonists” (Protagonist Therapeutics, Inc., priority 2014, dated 2017)
